In article PMC6043591, “Rpn11-mediated ubiquitin processing in an ancestral archaeal ubiquitination system” (Nature Communications, 2018):

Assays:
[1] = biological target: T1, CsJAMM (Candidatus Caldarchaeum subterraneum, UniProt E6N2R7); test: SDS-PAGE of SAMP Csub_C0702 precursor cleavage; type: biochemical; conditions: […] SAMP Csub_C0702, […] enzyme, […] °C, pH […] min preincubation
T1 construct: gene CSUB_C0703; N-terminal His6 tag with TEV site; synthetic gene, E. coli
T1 sequence (E6N2R7 1-140): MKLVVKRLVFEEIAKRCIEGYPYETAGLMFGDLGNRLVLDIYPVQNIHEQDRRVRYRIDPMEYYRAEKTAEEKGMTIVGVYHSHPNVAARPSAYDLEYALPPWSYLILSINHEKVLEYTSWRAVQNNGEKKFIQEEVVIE

[2] = biological target: T2, CsRpn11^Δ149–202 (Candidatus Caldarchaeum subterraneum, UniProt E6N8B9); test: SDS-PAGE of CsUb-pre cleavage; type: biochemical; conditions: 14 µM CsUb-pre, 1.75 µM enzyme, 45 °C, pH 7.5, 10 min preincubation; proposed coordination of catalytic Zn2+
T2 construct: gene CSUB_C1473; JAMM core domain, C-terminal residues 149-202 deleted (full length 202); N-terminal His6 tag with TEV site

[3] = biological target: truncated CsRpn11^Δ149–202 (Candidatus Caldiarchaeum subterraneum)
[4] = biological target: truncated CsRpn11^Δ149–202 (Candidatus Caldiarchaeum subterraneum); test: MST; 50 nM NT-647-labeled CsRpn11^Δ149–202 mixed with a serial 1:1 dilution of CsUb from 47 nM to 770 µM; 45 °C; Monolith NT.115, MST power 80%, laser intensity 40%; three independent experiments

Compound | SDS-PAGE of SAMP Csub_C0702 precursor cleavage [1] | SDS-PAGE of CsUb-pre cleavage [2] | KM of CsUb-pre cleavage by Co^2+-bound CsRpn11^Δ149–202 at 45 °C, quantified from SDS-PAGE bands [3] [µM] | Kd [4] [µM]
Sc1cccc2cccnc12 [8-thioquinoline] | effects on CsJAMM-mediated CsSAMP processing were significantly weaker | CsUb-pre processing by CsRpn11 was strongly affected by both 8-TQ and thiolutin |  | 
CC(=O)Nc1c2sscc-2n(C)c1=O [thiolutin] | effects on CsJAMM-mediated CsSAMP processing were significantly weaker | CsUb-pre processing by CsRpn11 was strongly affected by both 8-TQ and thiolutin |  | 
CsUb precursor (CsUb-pre) (natural protein) |  |  | 17.8 | 
mature C. subterraneum ubiquitin CsUb (natural protein) |  |  |  | 14.6
